As usually defined, the IC50 is the concentration that gives 50% inhibition.

Bounds are passed on as bounds.

Here are results for 22 compounds from patent US9249145B2, “Heterocyclic derivatives of pyrazol-4-yl-pyrrolo[2,3-d]pyrimidines as janus kinase inhibitors” (Incyte Holdings Corporation, priority 2009, dated 2016).

The target in experiment [1] is T1, human JAK1 (a.a. 837-1142) (Homo sapiens, UniProt P23458).
T1 construct: The catalytic domains of human JAK1 (a.a. 837-1142); His tag (N); made in house; host or cells: insect cells (baculovirus)
T1 sequence (P23458 849-1154): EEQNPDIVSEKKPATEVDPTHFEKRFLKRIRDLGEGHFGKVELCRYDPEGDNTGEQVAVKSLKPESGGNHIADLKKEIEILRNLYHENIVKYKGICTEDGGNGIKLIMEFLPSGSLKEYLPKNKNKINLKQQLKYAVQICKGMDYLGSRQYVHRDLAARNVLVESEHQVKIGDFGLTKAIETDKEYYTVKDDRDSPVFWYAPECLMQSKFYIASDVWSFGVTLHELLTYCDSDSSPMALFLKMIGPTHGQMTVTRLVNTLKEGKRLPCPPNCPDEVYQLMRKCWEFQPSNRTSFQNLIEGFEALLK
The experiment in a line: In vitro JAK kinase assay (HTRF, phosphorylation of biotinylated peptide), JAK1. It is filed as biochemical. The note with it: 1 mM ATP; Examples 92-162; read-out: JAK1 IC50 (nM) @ 1 mM ATP. In short, it runs like this:
(§1)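 IC50 from HTRF detection (Eu-Py20 antibody, SA-APC, 40 min) after EDTA quench. Reactions ran 1 h at room temperature with 500 nM biotinylated peptide in Tris pH 7.8 buffer with NaCl, DTT, BSA; ATP 90 μM for JAK1, 30 μM for JAK2 (Km), or 1 mM. Enzymes: His-tagged catalytic domains from insect cells.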
On the technique in general: TR-FRET usually uses a lanthanide donor and a delayed reading to cut background.

In the next experiment the target is T2, Jak2 (a.a. 828-1132) (Homo sapiens, UniProt O60674).
T2 construct: Jak2 (a.a. 828-1132); His tag (N); made in house; host or cells: insect cells (baculovirus)
T2 sequence (O60674 828-1132): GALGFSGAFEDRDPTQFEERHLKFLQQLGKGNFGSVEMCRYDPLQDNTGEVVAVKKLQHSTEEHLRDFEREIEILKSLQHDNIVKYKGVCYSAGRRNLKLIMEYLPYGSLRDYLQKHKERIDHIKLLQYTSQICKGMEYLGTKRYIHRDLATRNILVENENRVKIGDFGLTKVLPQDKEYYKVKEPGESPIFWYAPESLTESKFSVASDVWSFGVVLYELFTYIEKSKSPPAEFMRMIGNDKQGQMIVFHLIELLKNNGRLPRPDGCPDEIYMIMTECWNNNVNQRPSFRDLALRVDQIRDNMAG
The experiment in a line: In vitro JAK kinase assay (HTRF, phosphorylation of biotinylated peptide), JAK2. It is filed as biochemical. The conditions noted are these: 1 mM ATP; Examples 92-162; read-out: JAK2 IC50 (nM) @ 1 mM ATP. In short, it runs like this:
as §1

Regarding `CCC(CN1CCN(S(=O)(=O)c2cn(C)nc2C(F)(F)F)CC1)n1cc(-c2ncnc3[nH]ccc23)cn1` (centres unmarked) [Example 133, 4-(1-(1-(4-(1-methyl-3-(trifluoromethyl)-1H-pyrazol-4-ylsulfonyl)piperazin-1-yl)butan-2-yl)-1H-pyrazol-4-yl)-7H-pyrrolo[2,3-d]pyrimidine], the 50% inhibitory concentration (IC50) in experiment [1] is 20 to 50 nM; at Jak2 (a.a. 828-1132) it was greater than 100 nM.

Take `CCC(CN1CCN(S(=O)(=O)c2cccs2)CC1)n1cc(-c2ncnc3[nH]ccc23)cn1` (centres unmarked) [Example 134, 4-(1-(1-(4-(thiophen-2-ylsulfonyl)piperazin-1-yl)butan-2-yl)-1H-pyrazol-4-yl)-7H-pyrrolo[2,3-d]pyrimidine]: the IC50 in experiment [1] is less than 20 nM; on Jak2 (a.a. 828-1132), 20 to 50 nM.

For `CCC(CN1CCN(S(=O)(=O)c2sccc2Cl)CC1)n1cc(-c2ncnc3[nH]ccc23)cn1` (centres unmarked) [Example 135, 4-(1-(1-(4-(3-chlorothiophen-2-ylsulfonyl)piperazin-1-yl)butan-2-yl)-1H-pyrazol-4-yl)-7H-pyrrolo[2,3-d]pyrimidine], the results for the IC50 (in experiment [1]; on Jak2 (a.a. 828-1132)) were less than 20 nM and 20 to 50 nM, respectively.

With `CCC(CN1CCN(S(=O)(=O)c2cccc(F)c2)CC1)n1cc(-c2ncnc3[nH]ccc23)cn1` (centres unmarked) [Example 136, 4-(1-(1-(4-(3-fluorophenylsulfonyl)piperazin-1-yl)butan-2-yl)-1H-pyrazol-4-yl)-7H-pyrrolo[2,3-d]pyrimidine], the IC50 is less than 20 nM in experiment [1] and 20 to 50 nM at Jak2 (a.a. 828-1132).

With `CCC(CN1CCN(S(=O)(=O)c2ccc(F)cc2)CC1)n1cc(-c2ncnc3[nH]ccc23)cn1` (centres unmarked) [Example 137, 4-(1-(1-(4-(4-fluorophenylsulfonyl)piperazin-1-yl)butan-2-yl)-1H-pyrazol-4-yl)-7H-pyrrolo[2,3-d]pyrimidine], the IC50 is less than 20 nM in experiment [1] and 50 to 100 nM on Jak2 (a.a. 828-1132).

For `CCC(CN1CCN(S(=O)(=O)c2cccc(C#N)c2)CC1)n1cc(-c2ncnc3[nH]ccc23)cn1` (centres unmarked) [Example 139, 3-(4-(2-(4-(7H-pyrrolo[2,3-d]pyrimidin-4-yl)-1H-pyrazol-1-yl)butyl)piperazin-1-ylsulfonyl)benzonitrile], the IC50 in experiment [1] is 20 to 50 nM; at Jak2 (a.a. 828-1132), greater than 100 nM.

`CCC(CN1CCN(S(=O)(=O)c2ccc(F)cc2F)CC1)n1cc(-c2ncnc3[nH]ccc23)cn1` (centres unmarked) [Example 140, 4-(1-(1-(4-(2,4-difluorophenylsulfonyl)piperazin-1-yl)butan-2-yl)-1H-pyrazol-4-yl)-7H-pyrrolo[2,3-d]pyrimidine]: the IC50 in experiment [1] is less than 20 nM; at Jak2 (a.a. 828-1132), 50 to 100 nM.

In the case of `CCC(CN1CCN(S(=O)(=O)c2cc(F)ccc2F)CC1)n1cc(-c2ncnc3[nH]ccc23)cn1` (centres unmarked) [Example 141, 4-(1-(1-(4-(2,5-difluorophenylsulfonyl)piperazin-1-yl)butan-2-yl)-1H-pyrazol-4-yl)-7H-pyrrolo[2,3-d]pyrimidine], the half-maximal inhibitory concentration (IC50) in experiment [1] is less than 20 nM; on Jak2 (a.a. 828-1132), 50 to 100 nM.

With `CCC(CN1CCN(S(=O)(=O)c2cc(F)cc(F)c2)CC1)n1cc(-c2ncnc3[nH]ccc23)cn1` (centres unmarked) [Example 142, 4-(1-(1-(4-(3,5-difluorophenylsulfonyl)piperazin-1-yl)butan-2-yl)-1H-pyrazol-4-yl)-7H-pyrrolo[2,3-d]pyrimidine], the 50% inhibitory concentration (IC50) in experiment [1] is less than 20 nM; on Jak2 (a.a. 828-1132) it was 50 to 100 nM.

For `CCC(CN1CCN(S(=O)(=O)c2ccc(F)cc2C)CC1)n1cc(-c2ncnc3[nH]ccc23)cn1` (centres unmarked) [Example 143, 4-(1-(1-(4-(4-floro-2-methylphenylsulfonyl)piperazin-1-yl)butan-2-yl)-1H-pyrazol-4-yl)-7H-pyrrolo[2,3-d]pyrimidine], the IC50 in experiment [1] was less than 20 nM; on Jak2 (a.a. 828-1132) it was greater than 100 nM.

Regarding `CCC(CN1CCN(S(=O)(=O)c2cn(C)c(C)n2)CC1)n1cc(-c2ncnc3[nH]ccc23)cn1` (centres unmarked) [Example 144, 4-(1-(1-(4-(1,2-dimethyl-1H-imidazol-4-ylsulfonyl)piperazin-1-yl)butan-2-yl)-1H-pyrazol-4-yl)-7H-pyrrolo[2,3-d]pyrimidine], the IC50 in experiment [1] fell in the range of 20 to 50 nM; on Jak2 (a.a. 828-1132), 50 to 100 nM.

For `CCC(CN1CCN(S(=O)(=O)c2ccc(Br)s2)CC1)n1cc(-c2ncnc3[nH]ccc23)cn1` (centres unmarked) [Example 145, 4-(1-(1-(4-(5-bromothiophen-2-ylsulfonyl)piperazin-1-yl)butan-2-yl)-1H-pyrazol-4-yl)-7H-pyrrolo[2,3-d]pyrimidine], the half-maximal inhibitory concentration (IC50) in experiment [1] is less than 20 nM; on Jak2 (a.a. 828-1132) it was 20 to 50 nM.

For the compound `Cc1c(Nc2ccccc2)ncnc1N1CCC(C(CC#N)n2cc(-c3ncnc4[nH]ccc34)cn2)CC1` (centres unmarked) [Example 146, 3-[1-(6-anilino-5-methylpyrimidin-4-yl)piperidin-4-yl]-3-[4-(7H-pyrrolo[2,3-d]pyrimidin-4-yl)-1H-pyrazol-1-yl]propanenitrile], the concentration for half-maximal inhibition (IC50) in experiment [1] is 20 to 50 nM; at Jak2 (a.a. 828-1132), greater than 100 nM.

Take `Cc1c(Nc2ccccc2F)ncnc1N1CCC(C(CC#N)n2cc(-c3ncnc4[nH]ccc34)cn2)CC1` (centres unmarked) [Example 147, 3-(4-(7H-pyrrolo[2,3-d]pyrimidin-4-yl)-1H-pyrazol-1-yl)-3-(1-(6-(2-fluorophenylamino)-5-methylpyrimidin-4-yl)piperidin-4-yl)propanenitrile]: the IC50 in experiment [1] is less than 20 nM; at Jak2 (a.a. 828-1132), greater than 100 nM.

Take `Cc1c(Nc2cccc(F)c2)ncnc1N1CCC(C(CC#N)n2cc(-c3ncnc4[nH]ccc34)cn2)CC1` (centres unmarked) [Example 148, 3-(4-(7H-pyrrolo[2,3-d]pyrimidin-4-yl)-1H-pyrazol-1-yl)-3-(1-(6-(3-fluorophenylamino)-5-methylpyrimidin-4-yl)piperidin-4-yl)propanenitrile]: the IC50 in experiment [1] was less than 20 nM; on Jak2 (a.a. 828-1132), 50 to 100 nM.

Take `Cc1c(Nc2cc(F)ccc2F)ncnc1N1CCC(C(CC#N)n2cc(-c3ncnc4[nH]ccc34)cn2)CC1` (centres unmarked) [Example 149, 3-(4-(7H-pyrrolo[2,3-d]pyrimidin-4-yl)-1H-pyrazol-1-yl)-3-(1-(6-(2,5-difluorophenylamino)-5-methylpyrimidin-4-yl)piperidin-4-yl)propanenitrile]: the IC50 is less than 20 nM in experiment [1] and greater than 100 nM at Jak2 (a.a. 828-1132).

On to `Cc1c(Nc2ccc(F)c(F)c2)ncnc1N1CCC(C(CC#N)n2cc(-c3ncnc4[nH]ccc34)cn2)CC1` (centres unmarked) [Example 150, 3-(4-(7H-pyrrolo[2,3-d]pyrimidin-4-yl)-1H-pyrazol-1-yl)-3-(1-(6-(3,4-difluorophenylamino)-5-methylpyrimidin-4-yl)piperidin-4-yl)propanenitrile], for which the IC50 (in experiment [1]; at Jak2 (a.a. 828-1132)) was less than 20 nM in each case.

`N#CCC(C1CCN(c2cc(Oc3ccccc3)ncn2)CC1)n1cc(-c2ncnc3[nH]ccc23)cn1` (centres unmarked) [Example 151, 3-(4-(7H-pyrrolo[2,3-d]pyrimidin-4-yl)-1H-pyrazol-1-yl)-3-(1-(6-phenoxypyrimidin-4-yl)piperidin-4-yl)propanenitrile]: the IC50 in experiment [1] is less than 20 nM; on Jak2 (a.a. 828-1132), 50 to 100 nM.

On to `N#CCC(C1CCN(c2cc(Oc3cccc(F)c3)ncn2)CC1)n1cc(-c2ncnc3[nH]ccc23)cn1` (centres unmarked) [Example 152, 3-(4-(7H-pyrrolo[2,3-d]pyrimidin-4-yl)-1H-pyrazol-1-yl)-3-(1-(6-(3-fluorophenoxy)pyrimidin-4-yl)piperidin-4-yl)propanenitrile], for which the values for the IC50 (in experiment [1]; on Jak2 (a.a. 828-1132)) were 20 to 50 nM and less than 20 nM, respectively.

For the compound `Cc1c(Nc2cccc(F)c2F)ncnc1N1CCC(C(CC#N)n2cc(-c3ncnc4[nH]ccc34)cn2)CC1` (centres unmarked) [Example 153, 3-(4-(7H-pyrrolo[2,3-d]pyrimidin-4-yl)-1H-pyrazol-1-yl)-3-(1-(6-(2,3-difluorophenylamino)-5-methylpyrimidin-4-yl)piperidin-4-yl)propanenitrile], the results for the IC50 (in experiment [1]; on Jak2 (a.a. 828-1132)) were 20 to 50 nM and greater than 100 nM, respectively.

On to `Cc1c(Nc2c(F)cccc2F)ncnc1N1CCC(C(CC#N)n2cc(-c3ncnc4[nH]ccc34)cn2)CC1` (centres unmarked) [Example 154, 3-(4-(7H-pyrrolo[2,3-d]pyrimidin-4-yl)-1H-pyrazol-1-yl)-3-(1-(6-(2,6-difluorophenylamino)-5-methylpyrimidin-4-yl)piperidin-4-yl)propanenitrile], for which the IC50 in experiment [1] was less than 20 nM; at Jak2 (a.a. 828-1132) it was 50 to 100 nM.

With `Cc1c(Nc2ccc(F)cc2F)ncnc1N1CCC(C(CC#N)n2cc(-c3ncnc4[nH]ccc34)cn2)CC1` (centres unmarked) [Example 155, 3-(4-(7H-pyrrolo[2,3-d]pyrimidin-4-yl)-1H-pyrazol-1-yl)-3-(1-(6-(2,4-difluorophenylamino)-5-methylpyrimidin-4-yl)piperidin-4-yl)propanenitrile], the IC50 is less than 20 nM in experiment [1] and greater than 100 nM on Jak2 (a.a. 828-1132).
